Assays:
[1] = Sensory evaluation in 0.15 wt % catechin aqueous solution (Experimental Example 9); conditions: summary of Table 23
Protocol: (§1) Each compound shown in the following Table 23 was added to a 0.15 wt % catechin aqueous solution (an aqueous solution prepared by dissolving catechin (0.15 parts by weight) in ion exchange water (99.85 parts by weight)) so as to achieve the concentration (addition concentration) shown in the following Table 23 to prepare each evaluation sample.
(§2) Based on the following evaluation criteria, a panel of four experts determined by consensus the intensity of off-tastes (bitter taste, rough taste, harsh taste) derived from catechin in each evaluation sample, by comparison with a 0.15 wt % catechin aqueous solution without addition of any compound (negative control).

[2] = Sensory evaluation of off-taste suppressing effect in 0.8 wt % potassium chloride aqueous solution (Experimental Examples 1 and 2)
Protocol: Each compound shown in the following Tables 1 to 13 was added to a 0.8 wt % potassium chloride aqueous solution at the concentration (addition concentration) shown in the following Tables 1 to 13 to prepare each evaluation sample.
Based on the following evaluation criteria, a panel of two experts determined by consensus the intensity of off-tastes (bitter taste, metallic taste, harsh taste, astringent taste) derived from potassium chloride in each evaluation sample, by reference to each potassium chloride aqueous solution adjusted to 0.8 wt %, 0.75 wt %, 0.7 wt %, or 0.65 wt %.
−: intensity of the same level as potassium chloride aqueous solution with potassium chloride concentration of not less than 0.8 wt %
+: intensity of the same level as potassium chloride aqueous solution with potassium chloride concentration of not less than 0.75 wt % and less than 0.8 wt %
++: intensity of the same level as potassium chloride aqueous solution with potassium chloride concentration of not less than 0.7 wt % and less than 0.75 wt %
+++: intensity of the same level as potassium chloride aqueous solution with potassium chloride concentration of not less than 0.65 wt % and less than 0.7 wt %
Each compound shown in the following Table 14 was added to a 0.8 wt % potassium chloride aqueous solution at the concentration (addition concentration) shown in the following Table 14 to prepare each evaluation sample.

[3] = Sensory evaluation in soy protein hamburg steak (Experimental Example 17); conditions: Table 32
Protocol: Of the materials shown in the following Table 31, the materials of category 1 were first mixed, and the materials of category 2 were further mixed. The obtained mixture was formed into a circular shape of about 100 g per piece, and then baked at 180° C. for 2 minutes and 30 seconds for each of the front and back sides on an iron plate to produce a soy protein hamburg steak. Here, the granular soy protein manufactured by FUJI OIL CO., LTD. was used.
Each compound shown in the following Table 32 was added to soy protein hamburg steak so as to achieve the concentration (addition concentration) shown in the following Table 32 to prepare each evaluation sample.
as §2, with “five” for “four”, “harsh” for “rough”, “astringent” for “harsh”, “soy protein” for “catechin”, “soy protein hamburg steak” for “a 0.15 wt % catechin aqueous solution”

[4] = Sensory evaluation in 1.5 wt % disodium phosphate aqueous solution (Experimental Example 19); conditions: Table 34
Protocol: Each compound shown in the following Table 34 was added to a 1.5 wt % disodium phosphate aqueous solution (aqueous solution prepared by dissolving disodium phosphate (1.5 parts by weight) in water (98.5 parts by weight)) so as to achieve the concentration (addition concentration) shown in the following Table 34 to prepare each evaluation sample.
as §2, with “harsh” for “rough”, “astringent” for “harsh”, “disodium phosphate” for “catechin”, “1.5” for “0.15”

[5] = Sensory evaluation in 1 wt % methyl cellulose aqueous solution (Experimental Example 20); conditions: Table 35
Protocol: Each compound shown in the following Table 35 was added to a 1 wt % methyl cellulose aqueous solution (aqueous solution prepared by dissolving methyl cellulose (1 part by weight) in water (99 parts by weight)) so as to achieve the concentration (addition concentration) shown in the following Table 35 to prepare each evaluation sample. Here, the methyl cellulose manufactured by Unitec Foods Co., Ltd. was used.
as §2, with “harsh” for “rough”, “astringent” for “harsh”, “methyl cellulose” for “catechin”, “1” for “0.15”

[6] = Sensory evaluation in soy protein aqueous solution (Experimental Example 13); conditions: Table 27
Protocol: Each compound shown in the following Table 27 was added to an aqueous solution prepared by dissolving powdered soy protein (4 parts by weight) in water (96 parts by weight) (hereinafter at times referred to as soy protein aqueous solution) so as to achieve the concentration (addition concentration) shown in the following Table 27 to prepare each evaluation sample. Here, the powdered soy protein manufactured by FUJI OIL CO., LTD. was used.
as §2, with “harsh” for “rough”, “astringent” for “harsh”, “soy protein” for “catechin”, “soy protein” for “0.15 wt % catechin”

[7] = Sensory evaluation in granular soy protein (Experimental Example 14); conditions: text summary of Table 28
Protocol: Each compound shown in the following Table 28 was added to granular soy protein (manufactured by FUJI OIL CO., LTD.) so as to achieve the concentration (addition concentration) shown in the following Table 28 to prepare each evaluation sample.
as §2, with “harsh” for “rough”, “astringent” for “harsh”, “soy protein” for “catechin”, “granular soy protein” for “a 0.15 wt % catechin aqueous solution”

[8] = Sensory evaluation in granular pea protein (Experimental Example 15); conditions: Table 29
Protocol: Each compound shown in the following Table 29 was added to granular pea protein (manufactured by Roquette) so as to achieve the concentration (addition concentration) shown in the following Table 29 to prepare each evaluation sample.
as §2, with “harsh” for “rough”, “astringent” for “harsh”, “pea protein” for “catechin”, “granular pea protein” for “a 0.15 wt % catechin aqueous solution”

[9] = Sensory evaluation in 0.06 wt % acesulfame potassium aqueous solution (Experimental Example 10); conditions: summary of Table 24
Protocol: as §1, with “24” for “23”, “0.06” for “0.15”, “acesulfame potassium” for “catechin”, “acesulfame potassium (0.06” for “catechin (0.15”, “in” for “in ion exchange”, “(99.94” for “(99.85”
as §2, with “(bitter” for “(bitter taste, rough taste, harsh”, “acesulfame potassium” for “catechin”, “0.06” for “0.15”

[10] = 0.8 wt % potassium chloride aqueous solution, addition concentration 100 weight ppb (12.5 weight ppm with respect to potassium chloride)
[11] = 0.8 wt % potassium chloride aqueous solution, addition concentration 500 weight ppb (62.5 weight ppm with respect to potassium chloride)
[12] = potassium chloride aqueous solutions, Tables 1 to 14
[13] = 0.8 wt % potassium chloride aqueous solution, addition concentration 50 weight ppb (6.25 weight ppm with respect to potassium chloride)

Row | Structure (SMILES) | intensity of off-tastes (bitter taste, rough taste, harsh taste) derived from catechin [1] | off-taste suppressing effect [2, 10] | off-taste suppressing effect [2, 11] | off-taste suppressing effect ([2]; 0.8 wt % potassium chloride aqueous solution, addition concentration 1000 weight ppb (125 weight ppm with respect to potassium chloride)) | off-taste suppressing effect ([2]; 0.8 wt % potassium chloride aqueous solution, addition concentration 2000 weight ppb (250 weight ppm with respect to potassium chloride)) | intensity of off-tastes (bitter taste, metallic taste, harsh taste, astringent taste) derived from potassium chloride [2, 12] | intensity of off-tastes (bitter taste, harsh taste, astringent taste) derived from soy protein [3] | intensity of off-tastes (bitter taste, harsh taste, astringent taste) derived from disodium phosphate [4] | intensity of off-tastes (bitter taste, harsh taste, astringent taste) derived from methyl cellulose [5] | intensity of off-tastes (bitter taste, harsh taste, astringent taste) derived from soy protein [6] | intensity of off-tastes (bitter taste, harsh taste, astringent taste) derived from soy protein [7] | intensity of off-tastes (bitter taste, harsh taste, astringent taste) derived from pea protein [8] | intensity of off-tastes (bitter taste) derived from acesulfame potassium [9] | off-taste suppressing effect [2, 13] | off-taste suppressing effect ([2]; in words, potassium chloride aqueous solutions, Tables 1 to 14) | off-taste suppressing effect ([2]; 0.8 wt % potassium chloride aqueous solution, addition concentration 10 weight ppb (1.25 weight ppm with respect to potassium chloride))
1 | CC(=O)c1ccc(C)o1 [2-acetyl-5-methylfuran] | suppressed | + (intensity of the same level as potassium chloride aqueous solution with potassium chloride concentration of not less than 0.75 wt % and less than 0.8 wt %) | ++ (intensity of the same level as potassium chloride aqueous solution with potassium chloride concentration of not less than 0.7 wt % and less than 0.75 wt %) | + (intensity of the same level as potassium chloride aqueous solution with potassium chloride concentration of not less than 0.75 wt % and less than 0.8 wt %) | + (intensity of the same level as potassium chloride aqueous solution with potassium chloride concentration of not less than 0.75 wt % and less than 0.8 wt %) | decreased | suppressed | suppressed | suppressed | suppressed | suppressed | suppressed | suppressed | – | – | –
2 | CC(=O)c1ccco1 [2-acetylfuran] | suppressed | +++ (intensity of the same level as potassium chloride aqueous solution with potassium chloride concentration of not less than 0.65 wt % and less than 0.7 wt %) | + (intensity of the same level as potassium chloride aqueous solution with potassium chloride concentration of not less than 0.75 wt % and less than 0.8 wt %) | – | – | decreased | suppressed | suppressed | suppressed | suppressed | suppressed | suppressed | suppressed | ++ (intensity of the same level as potassium chloride aqueous solution with potassium chloride concentration of not less than 0.7 wt % and less than 0.75 wt %) | high | –
3 | CC1OCCC1=O (stereo not drawn) [2-methyltetrahydrofuran-3-one] | suppressed | ++ (intensity of the same level as potassium chloride aqueous solution with potassium chloride concentration of not less than 0.7 wt % and less than 0.75 wt %) | + (intensity of the same level as potassium chloride aqueous solution with potassium chloride concentration of not less than 0.75 wt % and less than 0.8 wt %) | – | – | decreased | suppressed | suppressed | suppressed | suppressed | suppressed | suppressed | suppressed | ++ (intensity of the same level as potassium chloride aqueous solution with potassium chloride concentration of not less than 0.7 wt % and less than 0.75 wt %) | – | ++ (intensity of the same level as potassium chloride aqueous solution with potassium chloride concentration of not less than 0.7 wt % and less than 0.75 wt %)

Reference: patent US20220279826A1, “OFF-FLAVOR SUPPRESSING AGENT” (AJINOMOTO CO., INC., priority 2019, published 2022)
